In US9987381B2, “Radioligands for imaging the LPA-1 receptor” (BRISTOL-MYERS SQUIBB COMPANY, priority 2013, dated 2018):
Read-outs that look alike come from different tables or passages of the source.

Key:
Type in all cases: in vivo, rhesus monkeys
[1] = Plasma concentration and plasma free fraction in saturation study
Experimental: (§1) Two rhesus monkeys were included in the blocking, test-retest, and saturation studies: one male, one female; age=4.8±0.8 y; weight=8.6±0.4 kg. Studies in the same animal were separated by at least 2 weeks to allow the animal to recover from anesthesia and other effects. Four rhesus monkeys (2M, 2F) were included in the dosimetry study.
Blood samples were also collected for the last three saturation studies at −5, 60, 90 and 120 minutes after the start of [^11C]-BMT-136088 bolus plus infusion with non-tracer doses (n=4). Red cells were precipitated at 3200 rpm for 10 minutes at 10° C.; the plasma was divided into two aliquots and frozen at −80° C. until shipped for analysis. The goal of these measurements was to compare the plasma concentrations estimated from measurements of [^11C]-BMT-136088 and its metabolism using gamma counters and HPLC systems, to that from measurement of unlabeled BMT-136088 using mass spectrometry.

LPA1 [2] = target: T1, LPA1 (Macaca mulatta, UniProt H9EN64); assay: PET blocking study of [11C]-BMT-136088 with BMS-986020; details: from BPND 1.1±0.1
T1 construct: from tissue; host or cells: lung of living anaesthetised rhesus monkeys (in vivo PET)
Experimental: For the blocking data reanalyzed here, each animal was scanned twice during the administration of [^11C]-BMT-136088, using a bolus plus infusion (B+I) protocol: at baseline first, then during the administration of the blocking drug, BMS-986020, also using a bolus plus infusion protocol.
In the blocking study, BMS-986020 was administered i.v. using a 10-min bolus ([…]) followed by a ˜230 min infusion (0.25 mg/kg/hr) for a total dose of 1.224±0.015 mg/kg.
as §1
(§2) Following a low-dose, CT scan used for attenuation correction and to delineate the lung regions of interest, [^11C]-BMT-136088 was injected using a computer-control pump with a bolus plus infusion protocol, with an initial 1-min bolus and a ˜119-min infusion. The volume injected during the initial bolus represented 100 min (Kbol) worth of infusion in the blocking and test-retest study, and 300 min worth of infusion in the saturation study.
(§3) Beginning at the start of each injection, a 120-minute time-of-flight list-mode acquisition on the mCT PET/CT scanner (Siemens Medical Solutions USA, Inc.) was performed. Dynamic PET scan data were reconstructed with corrections for point-spread function, attenuation, normalization, scatter, randoms, and dead time using a 3D OP-OSEM TOF algorithm. PET images were reconstructed into 33 frames, with the following frame timing: 6×30 sec; 3×1 min; 2×2 min; 22×5 min. Each frame contained 400×400×111 (x,y,z) voxels (2.04×2.04×2.0 mm).
Blood samples for PK for each blockade study session were obtained at −1, 60, 90, 120, 150, 210, 240 and 270 minutes after the start of BMS-986020 bolus plus infusion. Red cells were precipitated at 3200 rpm for 10 minutes at 10° C.; the plasma was divided into two aliquots and frozen at −80° C. until shipped for analysis. […]

LPA1 [3] = target: T1, LPA1; assay: PET test-retest study of [11C]-BMT-136088 binding
Experimental: (§4) This study was divided in two parts: First, the test-retest variability of [^11C]-BMT-136088 binding in a within-day protocol. Second, a saturation study was performed to evaluate the fraction of specific and non-specific binding for the radiotracer [^11C]-BMT-136088, the in vivo equilibrium dissociation constant KD, and the radiopharmaceutical tracer-dose limit (to achieve less than 5% self-occupancy).
In the test-retest study, each animal was scanned twice per day, with the same interval between the two scans as in the blocking study, to measure the variability of [^11C]-BMT-136088 binding parameter and assess if there was a systematic difference in binding parameters between the two scan times (for example due to the prolonged anesthesia). The study was performed in the same animals as the blocking study.
as §1, §2
as §3, with “mm). […]” for “mm).”

LPA1 [4] = target: T1, LPA1; assay: PET saturation study of [11C]-BMT-136088 in lung (bolus plus infusion, VT by MA1/EA); details: for ED50: rhesus monkey
Experimental: as §4
In the saturation study, each animal was scanned twice a day, with varying mass of [^11C]-BMT-136088, from tracer dose to near-saturating doses. The interval between the two scans was the same as in the blocking study and test-retest study. For the first scans, tracer doses were used in 3 out of 4 study days. On the fourth day, the first scan dose was not performed at tracer dose, but the mass of the first dose scan was substantially lower than the second dose to minimize the influence of the first injection on the second scan data.
as §1, §2, §3
The lungs were semi-automatically delineated using CT images collected before each PET scan. • First, the lungs were segmented based on the CT image values in Hounsfield scale (−1000<HU<−200), using a region growing algorithm and seeds manually placed at the center of the lungs; • The trachea, and occasionally the air in the stomach were manually excluded from the segmentation results; • The segmented lung ROIs were divided into right and left ROIs by manually selecting a plane separating the left and right side of the animal (animals were lying in supine position, but this plane was not always perfectly vertical); • The right and left ROIs were further divided into three smaller ROIs: lower lung, mid lung, and upper lung. The upper lung was defined as the part of the lung above the heart; the lower lung was defined as the part of the lung that is less than 5 slices (˜1 cm) above the topmost axial slice where the top of the liver can be seen.
The lung time-activity curves (TACs) were computed for each ROI and expressed in kBq/cm^3. The lung ROI contains lung tissue, blood, and air. In particular, the lung density may change from scan to scan due to (slight) changes in animal positioning, which can change the left-right location of the heart and change which lung tends to be compressed by the heart. Therefore an estimate of the density of lung ROIs was estimated to convert the TAC units from kBq/cm^3 to kBq/g, as follows. The CT images were converted from Hounsfield scale to linear attenuation values (in cm^−1) for 511 KeV photons. These attenuation values were assumed to be linearly proportional to mass for soft tissue (e.g., lung and heart) and the heart density was assumed to be 1 g/cm^3. […]

T1 sequence (H9EN64 1-364): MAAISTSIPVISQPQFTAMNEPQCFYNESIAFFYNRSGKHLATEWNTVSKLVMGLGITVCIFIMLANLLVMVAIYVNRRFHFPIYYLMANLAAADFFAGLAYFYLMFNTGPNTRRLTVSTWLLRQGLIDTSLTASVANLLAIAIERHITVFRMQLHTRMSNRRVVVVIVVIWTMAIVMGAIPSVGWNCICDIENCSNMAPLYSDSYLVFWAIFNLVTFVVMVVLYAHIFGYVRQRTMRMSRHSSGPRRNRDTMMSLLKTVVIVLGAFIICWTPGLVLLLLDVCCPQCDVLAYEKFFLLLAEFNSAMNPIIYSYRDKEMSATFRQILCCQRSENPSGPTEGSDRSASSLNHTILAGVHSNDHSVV

- fraction unbound ([1]; both sexes, rhesus monkey, plasma, intravenous, measured during the saturation studies): 0.002
- slope of plasma concentration vs injected mass ([1]; saturation study, linear increase): 0.92 nM/(μg/kg)
- maximum expected blockade effect (LPA1 [2]): 52%
- test-retest variability (LPA1 [3]; EA, density and blood activity corrections, left ROIs mid and upper lung): −2±10%
- test-retest variability (LPA1 [3]; EA, density and blood activity corrections, right ROIs mid and upper lung): −1±11%
- test-retest variability (LPA1 [3]; MA1, animal A2, left ROIs mid and upper lung): −5%
- test-retest variability (LPA1 [3]; MA1, animal A2, right ROIs mid and upper lung): −8%
- IC50 (LPA1 [4]; MA1 and all corrections, VT versus plasma concentration): 28 ± 12 nM
- binding potential BPND (LPA1 [4]; MA1 with all corrections, lung): 1.1±0.1
- fraction of tracer in lung (excluding blood) specifically bound to LPA1 sites (LPA1 [4]; at equilibrium): about 50%
- Kd (LPA1 [4]; from plasma IC50 and plasma free fraction, read-out: in vivo KD): 0.055 nM
- ED50 (LPA1 [4]; MA1 with all corrections, read-out: ED50): 0.036 ± 0.015 mg/kg
- ED50 (LPA1 [4]; all ED50 estimates, range over analysis methods, read-out: ED50 estimates (all methods)): 0.036 to 0.056 mg/kg
- tracer dose limit (LPA1 [4]; to occupy less than 5% of LPA1 sites, based on ED50): 0.0019 mg/kg
SMILES: Cc1noc(-c2ccc(-c3ccc(C4(C(=O)O)CC4)cc3)cc2)c1NC(=O)O[C@H](C)c1cccc([11CH3])c1 [[^11C]-BMT-136088, [11C]-(R)-1-(4′-(3-Methyl-4-(((1-(m-tolyl)ethoxy)carbonyl)amino)isoxazol-5-yl)-[1,1′-biphenyl]-4-yl)cyclopropanecarboxylic acid]
